Source: patent US20080312147A1, “Compositions and Methods for the Regulation of Hair Growth” (NUGENE INC., priority 2007, published 2008)

Tested on: 5-α-reductase
Test: interruption of 5-α-reductase activity by copper containing peptides
Assay type: biochemical
Settings: stated in words only; said to act by preventing binding of testosterone to the active site; no method or data given

interruption of the activity of 5-α-reductase	Substance
interrupt 5-α-reductase	Cu(II)-His-Val-His
interrupt the activity of 5-α-reductase	Gly-His-Lys-Cu(II)
interrupt 5-α-reductase	His-Ala-His-Cu(II)
